Measurements taken from patent US11840551B2, “Compositions and methods of modulating the immune response by activating alpha protein kinase 1” (Shanghai Yao Yuan Biotechnology Co., Ltd., priority 2017, dated 2023).

Experiments:
[1] = biological target: T1, ALPK1 (Homo sapiens, UniProt Q96QP1); assay: Cell-free kinase assay of ALPK1 autophosphorylation (Western, anti-phospho-threonine); assay type: biochemical; conditions: 2 nM ALPK1 with ATP, 25° C., 1 h; H1b-ADP 10, 1, 0.2 nM; HBP and HMP-1bP 1, 10, 100 nM
T1 sequence (Q96QP1 whole entry): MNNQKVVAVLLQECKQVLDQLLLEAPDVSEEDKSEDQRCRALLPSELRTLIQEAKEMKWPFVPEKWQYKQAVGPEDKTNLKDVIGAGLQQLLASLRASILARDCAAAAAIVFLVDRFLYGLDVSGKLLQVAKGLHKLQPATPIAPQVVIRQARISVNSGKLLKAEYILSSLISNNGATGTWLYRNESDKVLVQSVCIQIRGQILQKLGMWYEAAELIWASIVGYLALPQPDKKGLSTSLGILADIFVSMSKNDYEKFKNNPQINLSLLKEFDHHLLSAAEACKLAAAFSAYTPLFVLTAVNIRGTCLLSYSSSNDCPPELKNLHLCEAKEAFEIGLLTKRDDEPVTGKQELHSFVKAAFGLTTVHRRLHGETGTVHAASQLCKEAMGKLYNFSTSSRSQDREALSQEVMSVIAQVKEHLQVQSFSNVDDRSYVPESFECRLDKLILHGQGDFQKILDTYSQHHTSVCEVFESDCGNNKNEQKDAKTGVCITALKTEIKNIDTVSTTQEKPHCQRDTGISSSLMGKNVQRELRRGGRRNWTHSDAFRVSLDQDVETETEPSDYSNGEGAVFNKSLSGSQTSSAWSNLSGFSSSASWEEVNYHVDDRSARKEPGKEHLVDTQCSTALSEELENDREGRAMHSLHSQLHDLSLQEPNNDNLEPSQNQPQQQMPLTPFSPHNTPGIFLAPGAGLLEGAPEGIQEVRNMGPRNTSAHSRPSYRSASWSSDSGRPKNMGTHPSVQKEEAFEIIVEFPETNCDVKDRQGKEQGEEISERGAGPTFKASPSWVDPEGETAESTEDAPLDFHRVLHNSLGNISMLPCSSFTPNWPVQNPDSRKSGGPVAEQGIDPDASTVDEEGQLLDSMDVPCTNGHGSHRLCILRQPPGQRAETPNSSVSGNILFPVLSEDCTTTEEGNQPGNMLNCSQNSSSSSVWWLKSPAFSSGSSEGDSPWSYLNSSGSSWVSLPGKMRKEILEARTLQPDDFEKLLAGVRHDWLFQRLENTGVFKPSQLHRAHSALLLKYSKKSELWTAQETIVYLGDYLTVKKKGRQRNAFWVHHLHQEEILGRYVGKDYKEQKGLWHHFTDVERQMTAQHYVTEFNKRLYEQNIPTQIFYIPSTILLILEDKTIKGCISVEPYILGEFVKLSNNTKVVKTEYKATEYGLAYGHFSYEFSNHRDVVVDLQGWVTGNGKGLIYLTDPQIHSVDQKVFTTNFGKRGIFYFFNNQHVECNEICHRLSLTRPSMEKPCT
Protocol: ALPK1 activation results in its autophosphorylation. Accordingly, we next asked whether the binding of H1b-ADP to ALPK1 was sufficient to induce ALPK1 autophosphorylation. Phosphorylation assays were performed according to standard protocols. Briefly, ALPK1 was incubated (2 nM, 25° C., 1 h) in assay buffer (20 μl, 25 mM HEPES pH 7.5, 50 mM KCl, 0.1 mM EDTA, 0.1 mM EGTA, 2 mM DTT, 1.5 mM CaCl2, 10 mM MgCl2) with ATP and chemically synthesized HBP, HMP-1bP, or H1b-ADP followed by denaturing gel electrophoresis and Western analysis with an anti-phospho-threonine antibody (CST) to detect autophosphorylation of ALPK1. […] The range of concentrations of HBP and HMP-1bP used in this assay (1 nM, 10 nM, 100 nM) was 10-fold higher than that used for H1b-ADP.

[2] = biological target: T1, ALPK1; assay: Thermal shift assay (SYPRO Orange) for binding to ALPK1; conditions: ALPK1 7 uM; 1, 5, 25, 125 uM compound; H1b-ADP shift at 5, 25 and 125 uM
From the text: The thermal shift assay is widely used to determine the binding of a molecule to a protein of interest. The assay is based on the increase in thermal energy required for denaturation of a protein where another molecule is bound to the protein. SYPRO Orange is a fluorescent compound used in the detection of thermal shift. SYPRO Orange binds to hydrophobic surfaces of the protein, and water strongly quenches its fluorescence. When the protein unfolds, the exposed hydrophobic surfaces bind the dye, resulting in an increase in fluorescence. When another molecule is bound to the protein, an increase in the temperature required for unfolding of the protein is observed.
This assay system was used to determine whether or not chemically synthesized HBP, HMP-1bP, and H1b-ADP directly bind to ALPK1. […] Only H1b-ADP induced a shift of more than 1 degree, at each of the three highest concentrations tested, 5 uM, 25 uM, and 125 uM.

[3] = biological target: T1, ALPK1; assay: Cell-free kinase assay of ALPK1-dependent phosphorylation of IκB; assay type: biochemical; conditions: 2 nM ALPK1, with or without ATP, 1 hour
Protocol: We next tested whether H1b-ADP-induced autophosphorylation of ALPK1 was effective to activate NFκB using phosphorylation of IκB as a marker for this activity. Phosphorylation assays were performed according to standard protocols and phosphorylated protein was detected by gel electrophoresis and Western blotting using an antibody that detects phosphorylated IκB. Briefly, assays were performed in a 20 μl volume at 25° C. in assay buffer (25 mM HEPES pH 7.5, 50 mM KCl, 0.1 mM EDTA, 0.1 mM EGTA, 2 mM DTT, 1.5 mM CaCl2, 10 mM MgCl2) containing 2 nM ALPK1 and H1b-ADP […] with or without ATP, or either ALPK1 alone or H1b-ADP alone, both in the presence of ATP. After 1 hour of incubation, the reaction was loaded to denaturing gel for protein electrophoresis and Western was performed to detect phosphorylation of 1 kB using p-IkB antibody (Abcam).

[4] = system: CT26 cells; assay: mRNA expression in CT26 tumor tissue after intratumoral injection (qPCR); assay type: in vivo, BALB/c mice; conditions: H1b-ADP 2.5 μg, 250 ng, 50 ng intratumoral, 4 hours post-injection
Protocol: We next asked whether H1b-ADP caused an increase in pro-inflammatory cytokines within the tumor. Tumor cells (2×10^5 per 100 μL CT26 cells) were inoculated subcutaneously into the right flank of BALB/c mice. 2.5 μg (n=2), 250 ng (n=2), 50 ng (n=2) of H1b-ADP or control (n=2) was intratumorally injected (20 uL) at day 7 post inoculation. 4 hours post-injection, tumor issues were dissected and harvested. Total RNA was isolated (TRIzol™, ThermoFisher) and cDNA was synthesized (PrimeScript™ RT reagent Kit, Takara) and amplified (AceQ™ qPCR SYBR™ Green Master Mix, Vazyme Biotech using a QuantStudio™ 7 Flex Real-Time PCR Systems (ThermoFisher) according to manufacturers' protocols.

[5] = system: mouse bone marrow-derived macrophages; assay: Cxcl1 mRNA expression in bone marrow-derived macrophages (qPCR); assay type: cell-based; conditions: 0.4 nM or 2 nM H1b-ADP, 2.5 hours
Protocol: In these experiments, mouse bone marrow-derived macrophages were treated with 0.4 nM or 2 nM H1b-ADP for 2.5 hours and harvested for mRNA expression analysis of Cxcl1 by qPCR. […] Accordingly, very low doses of H1b-ADP, or an agonist thereof, may be used to enhance or potentiate an immune response in a local tissue.

[6] = biological target: T1, ALPK1; assay: IL8 secretion in HEK293 cells (IL8 ELISA) as indicator of ALPK1 activation; conditions: cells cultured with fetal bovine, human or mouse serum
Protocol: Phosphatase such as the alkaline phosphatase may be responsible for H1b-ADP hydrolysis. We pre-mixed H1b-ADP with phosphatase inhibitor sodium orthovanadate (Na3VO4) before incubation with FBS. […] We hypothesized that the accumulation of hydrolysis product AMP can inhibit phosphatase activity.
A number of H1b-ADP derivative compounds were made as described herein and tested for biological activity as agonists of ALPK1 in vitro. In these experiments, serial dilutions of the compounds were added to the tissue culture media of HEK293 cells with (FIG. 27B, FIG. 28B, FIG. 29B) or without (FIG. 26, FIG. 27A, FIG. 28A, FIG. 29A) 10% FBS, as indicated in the figures. After 4 hours, the cell supernatant was collected and analyzed for IL8 concentration using IL8 ELISA (BD) as an indicator of ALPK1 activation.

[7] = system: phosphatase activity in the serum; assay: Incubation of H1b-ADP with FBS, product analysed by LC-MS; assay type: in vitro ADME, bovine; conditions: increasing incubation time, LC-MS; product determined to be AMP
From the text: FBS contains 110-352 μU/ml alkaline phosphatase.

H1b-ADP's activity to activate ALPK1 in HEK293 cells (IL8 secretion) [6]	H1b-ADP amount on incubation with FBS [7]	SMILES	autophosphorylation of ALPK1 [1]	thermal shift of ALPK1 [2]	IκB phosphorylation [3]	PD-1 and PD-L1 expression in tumor [4]	mRNA expression of CD8, CD4, Foxp3 and T-bet in tumor [4]	mRNA expression of inflammatory cytokine IL-1b, Tnfa, Ifn gamma, and IL-6, and chemokine Cxcl1 in tumor [4]	Cxcl1 mRNA expression, fold change over non-treated control [5]
		O=P(O)(O)O[C@@H]1O[C@H]([C@H](O)CO)[C@@H](O)[C@H](O)[C@@H]1O [HMP-1bP, D-glycero-β-D-manno-heptose-1-phosphate]	not HBP or HMP-1bP induces ATP-dependent autophosphorylation	Neither HBP nor HMP-1bP were able to induce a thermal shift					
greatly declined	the H1b-ADP amount declined	Nc1ncnc2c1ncn2[C@@H]1O[C@H](COP(=O)(O)OP(=O)(O)O[C@@H]2O[C@H]([C@H](O)CO)[C@@H](O)[C@H](O)[C@@H]2O)[C@@H](O)[C@H]1O [Compound H1b-ADP, D-glycero-D-manno-heptose-1β-ADP]	phosphorylation of ALPK1 was detected only in the presence of H1b-ADP		IkB phosphorylation was detected only in the presence of both ALPK1 and H1b-ADP in the presence of ATP	increased in H1b-ADP injected tumor	increased upon H1b-ADP injection	increased upon H1b-ADP injection	showed a dose-dependent response
